Data on 3 compounds can be found in US10899781B2, “Platinum complex, its preparation and therapeutic use” (City University of Hong Kong, priority 2018, dated 2021).

In one series the test system is A2780 cells. Briefly: Cellular accumulation of platinum by ICP-MS. The format is cell-based, human. Particulars: after 8 h. How it is done:
FIG. 5 is a plot showing the accumulation of Complex A in A2780 cells after treatment with 0.5 μM Complex A for 1 to 12 h.
The inventors first tested the cellular accumulation of Complex A by ICP-MS. Platinum accumulation in A2780 cells increases dramatically over time before 8 h and very slowly increases over time after 8 h. Thus, an incubation time of 8 h is selected for the following biological assays.
The cellular accumulation levels of Pt in A2780 cells treated with Complex A and oxaliplatin after 8 h are 6.4±1.2 and 0.9±0.1 ng Pt/106 cells, respectively. […] The cellular distribution of Complex A was also observed.

In series [1] the test system is MRC-5 normal human lung fibroblasts. The series can be described thus: Cytotoxicity, MTT assay. As to conditions: in dark, MTT at 40 h. It counts as cell-based. As to the method: (§1) The biological activity of Complex A was subsequently evaluated. A2780 cells were maintained in Roswell Park Memory Institution (RPMI) 1640 medium supported with 10% FBS, 2 mM L-glutamine, and 100 unit/mL penicillin/streptomycin. MCF-7 cells were cultured in Dulbecco's modified Eagle's medium supported with 10% FBS and 100 unit/mL penicillin/streptomycin. MRC-5 cells were maintained in Eagle's minimum essential medium supported with 10% FBS, 1 mM sodium pyruvate, 2 mM L-glutamine, 1 mM non-essential amino acid and 100 unit/mL penicillin/streptomycin. All the cells were incubated in a humidified incubator at 37° C. with 5% CO2
Cytotoxicity test was performed by exposing the cancer cells with Complex A. The viability of cancer cells exposed was evaluated by means of MTT assay. Cells were seeded in 96-well plates at a density of 3,000 cells per well and incubated until the cell confluency reached 50%. Then, the medium was removed and replaced with fresh medium containing different concentrations of complexes with 1% DMF. […] The absorbance at 570 nm and 730 nm of each well was measured by using a microplate reader (BioTek PowerWave XS).
The cytotoxicity of Complex A was then evaluated, using oxaliplatin and PPA as controls. Cells were treated with the compounds for 8 h, followed by irradiation or incubation in the dark, and the cell viability was measured by the MTT assay after 40 h. […]

Series [2] has as its system A2780 ovarian carcinoma cells. Briefly: Cytotoxicity, MTT assay. The format is cell-based, human. Particulars: 8 h treatment. As to the method:
as §1
(§2) Cytotoxicity test was performed by exposing the cancer cells with Complex A. The viability of cancer cells exposed was evaluated by means of MTT assay. Cells were seeded in 96-well plates at a density of 3,000 cells per well and incubated until the cell confluency reached 50%. Then, the medium was removed and replaced with fresh medium containing different concentrations of complexes with 1% DMF. After 8 h, the medium was aspirated, the well was washed with PBS for twice, and Earle's balanced salt solution (EBSS) was added. […] The EBSS was removed, and fresh complete cell culture medium was added to each well. After 40 h, the medium was changed to serum-free medium containing 1 mg/mL MTT. After 2 h additional incubation, the medium was removed, and DMSO (200 μL) was delivered to each well to dissolve the formed purple formazan. The absorbance at 570 nm and 730 nm of each well was measured by using a microplate reader (BioTek PowerWave XS).
(§3) The cytotoxicity of Complex A was then evaluated, using oxaliplatin and PPA as controls. Cells were treated with the compounds for 8 h, followed by irradiation or incubation in the dark, and the cell viability was measured by the MTT assay after 40 h. Complex A is non-toxic to the tested cells in the dark, and is very active under irradiation.

Series [3] concerns A2780cisR (platinum-resistant A2780 cells). The series can be described thus: Cytotoxicity, MTT assay. It counts as cell-based, human. As to conditions: for IC50: A2780cisR, 8 h treatment. How it is done: as §1, §2, §3
In the next series the test system is MCF-7 cells. The series can be described thus: Cytotoxicity, MTT assay. It counts as cell-based, human. How it is done:
as §1, §2, §3

A further series can be described thus: Fluorescence lifetime. It counts as physicochemical. As to conditions: in DMF. The source says: The inventors further investigated the mechanism of the reduction Complex A. No overlap was observed between the absorbance spectra of PPA and the dihydroxyl Pt(IV) compound [Pt(DACH)(OH)2(ox)]. Therefore, direct energy transfer may not occur between PPA and the Pt(IV) center. […] The normalized fluorescence intensity of PPA and Complex A is identical, and the fluorescence lifetime of Complex A is 7 ns in DMF, which is the same as PPA. […] Since PPA is able to generate reactive oxygen species (ROS) and singlet oxygen through type I and type II photo process, respectively, the inventors used a hydroxyl radical scavenger, DMSO, and a singlet oxygen scavenger, NaN3, to investigate the electron transfer process. […] Thus, without to be bound by theory, the inventors believe that hydroxy radical is involved in the reaction, and the elimination of hydroxy radical may accelerate the reaction. Furthermore, it was observed that the reduction rate is related to the water content in the system.

Series [4] in a line: Photoactivation (photo-reduction) of Complex A under 650 nm irradiation, HPLC. The format is physicochemical. Particulars: mixture of the compound and PPA in the presence of ascorbate. How it is done: FIG. 3 is a combined RP-HPLC chromatogram showing the intensity of Complex A and PPA after 10 μM Complex A in PBS buffer containing 1% DMF and 1 mM ascorbate was subject to irradiation at 650 nm with a power density of 7 mW/cm^2 for different time periods (from 0 min to 30 min). Peak 1 corresponds to Complex A, and Peak 2 corresponds to PPA.
FIG. 4 is a plot showing the amount of Complex A and PPA after subjecting to irradiation at 650 nm calculated from the results in FIG. 3.
The photoactivation property of Complex A was investigated. Buffer solution containing 10 μM Complex A with 1 mM ascorbate in a quartz cuvette was irradiated with LED lamp (650 nm, 7 mW/cm^2) under stirring. Samples were analyzed by HPLC. […] After irradiation for 10 min, 81% of Complex A was reduced, and most of the complex was reduced within 30 min. Irradiation of Complex A without the presence of ascorbate also leads to the release of PPA and oxaliplatin, but the reaction speed is much slower.
The inventors further investigated the mechanism of the reduction Complex A. No overlap was observed between the absorbance spectra of PPA and the dihydroxyl Pt(IV) compound [Pt(DACH)(OH)2(ox)]. […] The normalized fluorescence intensity of PPA and Complex A is identical, and the fluorescence lifetime of Complex A is 7 ns in DMF, which is the same as PPA. […]

The mark [5] stands for this setting: with irradiation at 650 nm (7 mW/cm^2) for 15 min, MTT at 40 h after irradiation.
[6] abbreviates: Homo sapiens, in the dark, MTT at 40 h.
Setting [7] is: Homo sapiens, light or radiation study, with irradiation at 650 nm (7 mW/cm^2) for 15 min, MTT at 40 h after irradiation.

Take `O=C1[O][Pt]2([NH][C@@H]3CCCC[C@H]3[NH]2)[O]C1=O` [Oxaliplatin, oxaliplatin]: the “cellular accumulation levels of Pt” value with A2780 cells stood at 0.9±0.1 ng Pt/106 cells. Further, the IC50 in series [1] (8 h treatment) was 122 ± 5.2 µM; in series [2] (in the dark, MTT at 40 h), over 40 µM; in series [2] (setting [5]) it was over 40 µM; in series [3] (in the dark, MTT at 40 h) it was 162 ± 9 µM; in series [3] (setting [5]) it was 185 ± 8 µM; with MCF-7 cells (8 h treatment, in the dark, MTT at 40 h), 110 ± 4.3 µM. Besides, in the series with MCF-7 cells (8 h treatment, with irradiation at 650 nm (7 mW/cm^2) for 15 min, MTT at 40 h after irradiation), 78.6 ± 8.7 µM corresponded to half-maximal inhibition (IC50). This compound returned a resistant factor in series [3] (IC50 towards cisplatin-resistant cells divided by IC50 towards non-resistant cells (A2780cisR / A2780)) of 2.7.
Consider `C=Cc1c(C)c2cc3nc(c4c5[nH]c(cc6nc(cc1[nH]2)C(C)=C6CC)c(C)c5C(=O)C4)[C@@H](CCC(=O)O)[C@@H]3C` [PPA, pyropheophorbide a], for which the IC50 in series [1] (Homo sapiens, MRC5, 8 h treatment) was over 10 µM; in series [2] (setting [6]), over 10 µM; in series [2] (setting [7]), 0.34 ± 0.05 µM; in series [3] (setting [7]), 0.23 ± 0.01 µM; in series [3] (setting [6]), over 10 µM; in the series on MCF-7 cells (Homo sapiens, MCF7, 8 h treatment, in the dark, MTT at 40 h) it was over 10 µM. Further, the IC50 in the series with MCF-7 cells (Homo sapiens, MCF7, light or radiation study, 8 h treatment, with irradiation at 650 nm (7 mW/cm^2) for 15 min, MTT at 40 h after irradiation) is 0.2 ± 0.02 µM. The same compound showed a fluorescence lifetime in the series “Fluorescence lifetime” of 7 ns.
Take “[Pt(DACH)(OH)2(ox)] [[(Pt(DACH)(OH)2(ox))]]”: the reduction under irradiation result in series [4] is listed as “cannot be reduced”.
